Experimental data published in ChEMBL document CHEMBL3885881, “DrugMatrix”.

Organism: Rattus norvegicus
Assay: DrugMatrix - Regimen: Daily Repeat
Type: toxicity, organism-based, Sprague-Dawley
Parameters: regimen Daily Repeat, gender Male, age 6-8 weeks
Details: in vivo, po, route oral GAVAGE, vehicle .5 % CMC; for BASOPHIL / EOSINOPHIL / ERYTHROCYTE COUNT / HEMATOCRIT / HEMOGLOBIN / LEUKOCYTE COUNT / LYMPHOCYTE / MEAN CORPUSCULAR HEMOGLOBIN / MEAN CORPUSCULAR HEMOGLOBIN CONCENTRATION / MEAN CORPUSCULAR VOLUME / MONOCYTE / NEUTROPHIL / PLATELET COUNT: tissue Blood; for ALANINE AMINOTRANSFERASE / ALBUMIN / ALKALINE PHOSPHATASE / ASPARTATE AMINOTRANSFERASE / BLOOD UREA NITROGEN / CHLORIDE / CHOLESTEROL / CREATINE PHOSPHOKINASE / CREATININE / GLUCOSE / PHOSPHORUS / POTASSIUM / SODIUM / TOTAL BILIRUBIN / TOTAL PROTEIN: tissue Plasma
[1] = 0 mg/kg, 72 h, dose level Control, time 3 day
[2] = 0 mg/kg, 120 h, dose level Control, time 5 day
[3] = 10 mg/kg, 72 h, dose level Low, time 3 day
[4] = 10 mg/kg, 120 h, dose level Low, time 5 day
[5] = 1500 mg/kg, 72 h, dose level High, time 3 day
[6] = 1500 mg/kg, 120 h, dose level High, time 5 day

COc1ccc(Cl)cc1C(=O)NCCc1ccc(S(=O)(=O)NC(=O)NC2CCCCC2)cc1 [GLYBURIDE]
BASOPHIL [1]: 0% | EOSINOPHIL [1]: 0% | ERYTHROCYTE COUNT [1]: 6.34 x10E6/uL | HEMATOCRIT [1]: 37.62% | HEMOGLOBIN [1]: 14.82 G/DL | LEUKOCYTE COUNT [1]: 11.18 x10E3/uL | LYMPHOCYTE [1]: 87.5% | MEAN CORPUSCULAR HEMOGLOBIN [1]: 23.48 pg | MEAN CORPUSCULAR HEMOGLOBIN CONCENTRATION [1]: 39.5 G/DL | MEAN CORPUSCULAR VOLUME [1]: 59.45 fL | MONOCYTE [1]: 1.67% | NEUTROPHIL [1]: 10.83% | PLATELET COUNT [1]: 1074.83 x10E3/uL | ALANINE AMINOTRANSFERASE [1]: 36.5 u/L | ALBUMIN [1]: 3.9 G/DL | ALKALINE PHOSPHATASE [1]: 370.17 u/L | ASPARTATE AMINOTRANSFERASE [1]: 63.17 u/L | BLOOD UREA NITROGEN [1]: 16.83 mg/dL | CHLORIDE [1]: 99.33 MEQ/L | CHOLESTEROL [1]: 64.33 mg/dL | CREATINE PHOSPHOKINASE [1]: 127 u/L | CREATININE [1]: 0.55 mg/dL | GLUCOSE [1]: 173.5 mg/dL | PHOSPHORUS [1]: 10.08 mg/dL | POTASSIUM [1]: 6.23 MEQ/L | SODIUM [1]: 143.5 MEQ/L | TOTAL BILIRUBIN [1]: 0.52 mg/dL | TOTAL PROTEIN [1]: 6.35 G/DL | BASOPHIL [2]: 0% | EOSINOPHIL [2]: 0.17% | ERYTHROCYTE COUNT [2]: 6.12 x10E6/uL | HEMATOCRIT [2]: 37.08% | HEMOGLOBIN [2]: 14.82 G/DL | LEUKOCYTE COUNT [2]: 11.87 x10E3/uL | LYMPHOCYTE [2]: 83.33% | MEAN CORPUSCULAR HEMOGLOBIN [2]: 24.25 pg | MEAN CORPUSCULAR HEMOGLOBIN CONCENTRATION [2]: 39.97 G/DL | MEAN CORPUSCULAR VOLUME [2]: 60.65 fL | MONOCYTE [2]: 1.5% | NEUTROPHIL [2]: 15% | PLATELET COUNT [2]: 1042.83 x10E3/uL | ALANINE AMINOTRANSFERASE [2]: 46 u/L | ALBUMIN [2]: 3.82 G/DL | ALKALINE PHOSPHATASE [2]: 369.5 u/L | ASPARTATE AMINOTRANSFERASE [2]: 65 u/L | BLOOD UREA NITROGEN [2]: 16.33 mg/dL | CHLORIDE [2]: 100.67 MEQ/L | CHOLESTEROL [2]: 57.17 mg/dL | CREATINE PHOSPHOKINASE [2]: 130 u/L | CREATININE [2]: 0.53 mg/dL | GLUCOSE [2]: 163.33 mg/dL | PHOSPHORUS [2]: 9.53 mg/dL | POTASSIUM [2]: 6.27 MEQ/L | SODIUM [2]: 144.83 MEQ/L | TOTAL BILIRUBIN [2]: 0.55 mg/dL | TOTAL PROTEIN [2]: 6.32 G/DL | BASOPHIL [3]: 0% | EOSINOPHIL [3]: 0.33% | ERYTHROCYTE COUNT [3]: 6.67 x10E6/uL | HEMATOCRIT [3]: 40.2% | HEMOGLOBIN [3]: 15.57 G/DL | LEUKOCYTE COUNT [3]: 12.13 x10E3/uL | LYMPHOCYTE [3]: 90.33% | MEAN CORPUSCULAR HEMOGLOBIN [3]: 23.33 pg | MEAN CORPUSCULAR HEMOGLOBIN CONCENTRATION [3]: 38.7 G/DL | MEAN CORPUSCULAR VOLUME [3]: 60.3 fL | MONOCYTE [3]: 1.33% | NEUTROPHIL [3]: 8% | PLATELET COUNT [3]: 1148 x10E3/uL | ALANINE AMINOTRANSFERASE [3]: 30.33 u/L | ALBUMIN [3]: 4.1 G/DL | ALKALINE PHOSPHATASE [3]: 317.67 u/L | ASPARTATE AMINOTRANSFERASE [3]: 61 u/L | BLOOD UREA NITROGEN [3]: 15 mg/dL | CHLORIDE [3]: 99.33 MEQ/L | CHOLESTEROL [3]: 66.33 mg/dL | CREATINE PHOSPHOKINASE [3]: 164.67 u/L | CREATININE [3]: 0.5 mg/dL | GLUCOSE [3]: 160.33 mg/dL | PHOSPHORUS [3]: 11.87 mg/dL | POTASSIUM [3]: 6.23 MEQ/L | SODIUM [3]: 144.67 MEQ/L | TOTAL BILIRUBIN [3]: 0.3 mg/dL | TOTAL PROTEIN [3]: 6.77 G/DL | BASOPHIL [4]: 0% | EOSINOPHIL [4]: 0% | ERYTHROCYTE COUNT [4]: 6.4 x10E6/uL | HEMATOCRIT [4]: 37.3% | HEMOGLOBIN [4]: 14.67 G/DL | LEUKOCYTE COUNT [4]: 11.77 x10E3/uL | LYMPHOCYTE [4]: 91.67% | MEAN CORPUSCULAR HEMOGLOBIN [4]: 22.97 pg | MEAN CORPUSCULAR HEMOGLOBIN CONCENTRATION [4]: 39.33 G/DL | MEAN CORPUSCULAR VOLUME [4]: 58.27 fL | MONOCYTE [4]: 0.67% | NEUTROPHIL [4]: 7.67% | PLATELET COUNT [4]: 1048 x10E3/uL | ALANINE AMINOTRANSFERASE [4]: 33 u/L | ALBUMIN [4]: 3.77 G/DL | ALKALINE PHOSPHATASE [4]: 328 u/L | ASPARTATE AMINOTRANSFERASE [4]: 52.33 u/L | BLOOD UREA NITROGEN [4]: 13.67 mg/dL | CHLORIDE [4]: 98.33 MEQ/L | CHOLESTEROL [4]: 53.33 mg/dL | CREATINE PHOSPHOKINASE [4]: 128.67 u/L | CREATININE [4]: 0.57 mg/dL | GLUCOSE [4]: 174 mg/dL | PHOSPHORUS [4]: 10.77 mg/dL | POTASSIUM [4]: 5.8 MEQ/L | SODIUM [4]: 144.33 MEQ/L | TOTAL BILIRUBIN [4]: 0.37 mg/dL | TOTAL PROTEIN [4]: 6.13 G/DL | BASOPHIL [5]: 0% | EOSINOPHIL [5]: 0% | ERYTHROCYTE COUNT [5]: 6.36 x10E6/uL | HEMATOCRIT [5]: 37.7% | HEMOGLOBIN [5]: 14.87 G/DL | LEUKOCYTE COUNT [5]: 13.87 x10E3/uL | LYMPHOCYTE [5]: 88.67% | MEAN CORPUSCULAR HEMOGLOBIN [5]: 23.43 pg | MEAN CORPUSCULAR HEMOGLOBIN CONCENTRATION [5]: 39.47 G/DL | MEAN CORPUSCULAR VOLUME [5]: 59.33 fL | MONOCYTE [5]: 1% | NEUTROPHIL [5]: 10.33% | PLATELET COUNT [5]: 1260.33 x10E3/uL | ALANINE AMINOTRANSFERASE [5]: 32 u/L | ALBUMIN [5]: 3.4 G/DL | ALKALINE PHOSPHATASE [5]: 223.33 u/L | ASPARTATE AMINOTRANSFERASE [5]: 50 u/L | BLOOD UREA NITROGEN [5]: 12 mg/dL | CHLORIDE [5]: 104.33 MEQ/L | CHOLESTEROL [5]: 52.67 mg/dL | CREATINE PHOSPHOKINASE [5]: 133.33 u/L | CREATININE [5]: 0.4 mg/dL | GLUCOSE [5]: 122.67 mg/dL | PHOSPHORUS [5]: 9.57 mg/dL | POTASSIUM [5]: 6.9 MEQ/L | SODIUM [5]: 150.33 MEQ/L | TOTAL BILIRUBIN [5]: 0.23 mg/dL | TOTAL PROTEIN [5]: 5.47 G/DL | BASOPHIL [6]: 0% | EOSINOPHIL [6]: 0% | ERYTHROCYTE COUNT [6]: 6.13 x10E6/uL | HEMATOCRIT [6]: 36.93% | HEMOGLOBIN [6]: 14.7 G/DL | LEUKOCYTE COUNT [6]: 14.7 x10E3/uL | LYMPHOCYTE [6]: 94.33% | MEAN CORPUSCULAR HEMOGLOBIN [6]: 24.03 pg | MEAN CORPUSCULAR HEMOGLOBIN CONCENTRATION [6]: 39.8 G/DL | MEAN CORPUSCULAR VOLUME [6]: 60.3 fL | MONOCYTE [6]: 0.67% | NEUTROPHIL [6]: 5% | PLATELET COUNT [6]: 1089.67 x10E3/uL | ALANINE AMINOTRANSFERASE [6]: 37 u/L | ALBUMIN [6]: 3.67 G/DL | ALKALINE PHOSPHATASE [6]: 297.33 u/L | ASPARTATE AMINOTRANSFERASE [6]: 58.33 u/L | BLOOD UREA NITROGEN [6]: 12.67 mg/dL | CHLORIDE [6]: 99.67 MEQ/L | CHOLESTEROL [6]: 63.33 mg/dL | CREATINE PHOSPHOKINASE [6]: 139.33 u/L | CREATININE [6]: 0.5 mg/dL | GLUCOSE [6]: 135 mg/dL | PHOSPHORUS [6]: 11.5 mg/dL | POTASSIUM [6]: 6.2 MEQ/L | SODIUM [6]: 145.33 MEQ/L | TOTAL BILIRUBIN [6]: 0.33 mg/dL | TOTAL PROTEIN [6]: 5.93 G/DL
